Data on two compounds can be found in publication PMC5318439, “The Novel Toll-Like Receptor 2 Agonist SUP3 Enhances Antigen Presentation and T Cell Activation by Dendritic Cells” (Frontiers in Immunology, 2017).

Where a SMILES comes first, the peptide text is derived from it. The star is where a group is joined. X1 = CCCCCCCCCCCCCCNC(=O)OC[C@H](C*)OC(=O)NCCCCCCCCCCCCCC; Palmitoyl = CCCCCCCCCCCCCCCC(=O)*

The test system of one experiment is CD8^+ cDCs. Description: Costimulatory and MHC molecule expression on CD8+ cDCs in vitro. It counts as cell-based, mice. The following applies: 200 nM, GM-CSF 20 ng/mL, 24 h, flow cytometry. As for the experimental part:
Single cell suspensions were prepared, and cells were stained by fluorescence-conjugated antibodies and viability dye 7-AAD (eBioscience 00-6993) at 4°C for 30 min in the dark. Cells were washed, resuspended, and analyzed on LSR Fortessa (Becton Dickinson).
Figure 4 SUP3 stimulated maturation of CD8^+ conventional dendritic cells (cDCs). (A) Purified CD8^+ cDCs were treated with SUP3 (200 nM) or Pam3 (200 nM) in the presence of granulocyte-macrophage colony-stimulating factor (GM-CSF) (20 ng/mL) for 24 h. The surface expression of costimulatory and major histocompatibility complex (MHC) molecules were then analyzed by flow cytometry. Representative data from three independent experiments were shown. “Isotype” represented relative isotype antibody staining of Pam3 or SUP3 stimulated cells. (B) SUP3 (2 nmol per mouse), Pam3 (2 nmol per mouse), or PBS were i.v. injected into mice for 1 h. Splenic CD8^+ cDCs were enriched, and surface expression of CD40 and CD86 was analyzed by flow cytometry. Representative data from two independent experiments with three mice for each group were shown. […] Supernatants were harvested 24 and 48 h post-stimulation, and cytokines were measured by ELISA. […]
(In general: In flow cytometry, cells or beads pass a laser one at a time.)

For another experiment, the system named is CD11b^+ cDCs. Kind of experiment: Cytokine production by purified CD11b+ cDCs (ELISA). It counts as cell-based, mice. The note with it: 200 nM, GM-CSF 20 ng/mL, 24 h, compared with CpG 20 nM. As for the experimental part: Splenic DCs (5 × 10^5 cells/mL) were stimulated by Pam3 (200 nM), SUP3 (200 nM), or CpG ODN 1668 (20 nM; Adipogen IAX-200-001) in the GM-CSF (20 ng/mL) supplemented medium for indicated periods. Cell culture supernatants were harvested at indicated time points and stored at −40°C. RAW 264.7 cells and GMDCs were stimulated by lipopolysaccharide (LPS) (20 ng/mL; Adipogen IAX-100-013), Pam3, or SUP3 (both at 200 nM) for 24 h. For in vivo administration, Pam3 (2 nmol per mouse), SUP3 (2 nmol per mouse), or LPS (1 µg per mouse) were intravenously (i.v.) injected via tail veins. Serum was obtained through tail vein bleeding and centrifuged after coagulation and stored at −40°C. Cytokines (IL-6, eBioscience 88-7064; TNFα, eBioscience 88-7324; IL-12p40, BioLegend 431604), chemokine (MIP1α, R&D Systems DY450-05), and total IgM (eBioscience, 88-50470) were quantified by ELISA kits following the instructions of manufacturers.
Figure 5 SUP3 enhanced antigen presentation ability of CD11b^+ conventional dendritic cells (cDCs) and production of antibodies against thymus-dependent (TD) antigens. […] Three days after immunization, division of OT-II CD4^+ T cells from inguinal lymph nodes were analyzed by flow cytometry (B). Absolute numbers of proliferated OT-II CD4^+ T cells were calculated in (C). […] (D) The division of OT-II cells was measured by reduced level of CFSE-labeling. […]
(In an ELISA, binding on a coated surface is turned into a signal by an enzyme label.)

Regarding `CCCCCCCCCCCCCCCC(=O)N[C@@H](CSC[C@@H](COC(=O)NCCCCCCCCCCCCCC)OC(=O)NCCCCCCCCCCCCCC)C(=O)NCC(=O)N[C@@H](CCCCN)C(=O)N[C@@H](CCCCN)C(=O)N[C@@H](CCCCN)C(=O)O` [SUP3, (2S,5S,8S,14R,18R)-2,5,8-tris(4-aminobutyl)-4,7,10,13,21-pentaoxo-14-palmitamido-18-((tetradecylcarbamoyl)oxy)-20-oxa-16-thia-3,6,9,12,22-pentaazahexatriacontan-1-oic acid] (Palmitoyl-C(X1)GKKK-OH), the “expression of CD40, CD80, CD86, and MHC-II on CD8+ cDCs” value in the experiment with CD8^+ cDCs is on record as “substantial upregulation”. Moreover, in the experiment on CD11b^+ cDCs, the “IL-6, TNFα, and MIP1α production by CD11b+ cDCs” value is recorded as “lower level”.
Turning to Pam3CSK4 [reference compound], the “expression of CD40, CD80, CD86, and MHC-II on CD8+ cDCs” value in the experiment with CD8^+ cDCs was “substantial upregulation”. Moreover, the “IL-6, TNFα, and MIP1α production by CD11b+ cDCs” value in the experiment with CD11b^+ cDCs is “lower level”.
